Counter-ions that a name gives are not always drawn. Like-named read-outs stand apart in the source and are kept apart here.
How the values were obtained:
[1] = tested on: SK-BR-3 breast-derived cell line; settings: proliferation; cited from earlier work
[2] = tested on: HT29; settings: cited from earlier work
[3] = tested on: U937 leukemia cell line; settings: proliferation; cited from earlier work
[4] = biological target: SET7/9 (Homo sapiens, UniProt Q8WTS6); settings: cited from earlier work
Chain of SET7/9 (Q8WTS6 whole entry, species assumed): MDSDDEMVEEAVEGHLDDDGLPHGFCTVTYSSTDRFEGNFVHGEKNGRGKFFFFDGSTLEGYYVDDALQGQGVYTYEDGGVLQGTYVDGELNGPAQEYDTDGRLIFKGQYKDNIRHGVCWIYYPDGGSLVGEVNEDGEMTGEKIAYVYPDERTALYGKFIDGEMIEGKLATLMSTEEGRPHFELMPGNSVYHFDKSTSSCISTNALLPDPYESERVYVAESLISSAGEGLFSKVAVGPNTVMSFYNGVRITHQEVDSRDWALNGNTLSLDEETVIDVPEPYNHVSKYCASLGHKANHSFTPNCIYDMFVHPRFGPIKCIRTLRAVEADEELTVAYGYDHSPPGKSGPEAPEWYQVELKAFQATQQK

[5] = biological target: PARP1 (Homo sapiens, UniProt P09874); settings: cited from earlier work
Chain of PARP1 (P09874 whole entry, species assumed): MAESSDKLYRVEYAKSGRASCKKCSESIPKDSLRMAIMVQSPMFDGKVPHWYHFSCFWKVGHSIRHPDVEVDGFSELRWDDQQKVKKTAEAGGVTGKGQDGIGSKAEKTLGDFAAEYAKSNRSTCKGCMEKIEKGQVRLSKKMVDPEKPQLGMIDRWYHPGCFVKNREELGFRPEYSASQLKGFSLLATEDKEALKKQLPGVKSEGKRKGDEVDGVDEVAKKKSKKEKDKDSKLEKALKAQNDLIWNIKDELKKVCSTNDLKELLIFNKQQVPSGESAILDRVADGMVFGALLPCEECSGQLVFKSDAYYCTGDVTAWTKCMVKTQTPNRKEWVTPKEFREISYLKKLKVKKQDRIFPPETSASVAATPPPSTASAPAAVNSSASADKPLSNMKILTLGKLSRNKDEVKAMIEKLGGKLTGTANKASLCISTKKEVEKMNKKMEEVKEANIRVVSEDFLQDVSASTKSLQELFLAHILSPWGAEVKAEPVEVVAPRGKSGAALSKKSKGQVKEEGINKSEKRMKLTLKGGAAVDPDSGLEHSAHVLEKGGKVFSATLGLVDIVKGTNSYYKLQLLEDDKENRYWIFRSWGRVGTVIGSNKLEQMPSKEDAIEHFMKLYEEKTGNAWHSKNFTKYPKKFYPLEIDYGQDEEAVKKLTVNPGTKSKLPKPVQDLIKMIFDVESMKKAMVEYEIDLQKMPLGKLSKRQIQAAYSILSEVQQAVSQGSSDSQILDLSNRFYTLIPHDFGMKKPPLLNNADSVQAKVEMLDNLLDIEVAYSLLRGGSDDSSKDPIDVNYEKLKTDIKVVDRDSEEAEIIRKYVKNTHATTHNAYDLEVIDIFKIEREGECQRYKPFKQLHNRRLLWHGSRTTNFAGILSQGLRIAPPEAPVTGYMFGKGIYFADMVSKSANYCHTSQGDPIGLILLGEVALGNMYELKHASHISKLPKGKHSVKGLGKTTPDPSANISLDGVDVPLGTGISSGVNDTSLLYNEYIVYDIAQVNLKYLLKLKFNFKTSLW

[6] = biological target: Aurora A (Homo sapiens, UniProt O14965); settings: cited from earlier work
Chain of Aurora A (O14965 whole entry): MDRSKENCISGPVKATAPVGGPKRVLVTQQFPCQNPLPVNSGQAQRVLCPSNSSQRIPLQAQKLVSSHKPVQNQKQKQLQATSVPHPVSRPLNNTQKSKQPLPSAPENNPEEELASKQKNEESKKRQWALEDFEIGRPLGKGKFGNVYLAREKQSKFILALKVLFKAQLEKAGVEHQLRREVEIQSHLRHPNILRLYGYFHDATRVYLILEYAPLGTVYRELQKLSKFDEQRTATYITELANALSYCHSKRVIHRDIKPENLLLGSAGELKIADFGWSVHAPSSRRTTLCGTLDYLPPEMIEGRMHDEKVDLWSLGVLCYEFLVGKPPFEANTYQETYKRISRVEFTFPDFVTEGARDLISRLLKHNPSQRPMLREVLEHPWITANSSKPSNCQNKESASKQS

[7] = tested on: TNF-a; settings: control 325 pg/ml, cited from earlier work
[8] = biological target: HAT PCAF (p300/CREB-binding protein-associated factor) (Homo sapiens, UniProt Q92831); settings: cited from earlier work
Chain of HAT PCAF (p300/CREB-binding protein-associated factor) (Q92831 whole entry): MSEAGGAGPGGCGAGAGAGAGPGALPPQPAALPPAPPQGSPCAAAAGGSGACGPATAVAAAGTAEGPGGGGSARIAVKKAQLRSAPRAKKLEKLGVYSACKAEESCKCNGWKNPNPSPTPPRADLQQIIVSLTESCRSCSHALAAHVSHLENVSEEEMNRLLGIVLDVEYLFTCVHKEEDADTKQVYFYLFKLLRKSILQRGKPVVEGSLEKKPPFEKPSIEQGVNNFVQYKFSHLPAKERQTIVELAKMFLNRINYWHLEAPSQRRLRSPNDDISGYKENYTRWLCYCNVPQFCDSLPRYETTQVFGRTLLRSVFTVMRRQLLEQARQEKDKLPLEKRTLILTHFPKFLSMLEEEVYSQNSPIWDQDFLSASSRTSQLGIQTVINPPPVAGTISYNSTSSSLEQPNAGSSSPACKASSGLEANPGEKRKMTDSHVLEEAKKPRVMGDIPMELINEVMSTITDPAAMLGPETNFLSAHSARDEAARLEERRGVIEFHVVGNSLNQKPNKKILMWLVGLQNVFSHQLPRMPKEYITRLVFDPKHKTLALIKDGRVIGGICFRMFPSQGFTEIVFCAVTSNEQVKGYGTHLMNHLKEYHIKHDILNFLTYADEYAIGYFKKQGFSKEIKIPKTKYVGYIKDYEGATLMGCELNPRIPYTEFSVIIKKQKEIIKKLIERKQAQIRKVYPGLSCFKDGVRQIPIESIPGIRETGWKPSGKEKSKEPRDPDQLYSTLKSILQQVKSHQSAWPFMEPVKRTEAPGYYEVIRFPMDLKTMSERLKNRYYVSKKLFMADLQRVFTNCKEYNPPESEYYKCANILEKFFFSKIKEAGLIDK

[9] = tested on: RhoA/C-mediated, SRF-driven luciferase expression in PCS prostate cancer cells; settings: cited from earlier work
[10] = biological target: Aurora B (Homo sapiens, UniProt Q96GD4); settings: cited from earlier work
Chain of Aurora B (Q96GD4 whole entry): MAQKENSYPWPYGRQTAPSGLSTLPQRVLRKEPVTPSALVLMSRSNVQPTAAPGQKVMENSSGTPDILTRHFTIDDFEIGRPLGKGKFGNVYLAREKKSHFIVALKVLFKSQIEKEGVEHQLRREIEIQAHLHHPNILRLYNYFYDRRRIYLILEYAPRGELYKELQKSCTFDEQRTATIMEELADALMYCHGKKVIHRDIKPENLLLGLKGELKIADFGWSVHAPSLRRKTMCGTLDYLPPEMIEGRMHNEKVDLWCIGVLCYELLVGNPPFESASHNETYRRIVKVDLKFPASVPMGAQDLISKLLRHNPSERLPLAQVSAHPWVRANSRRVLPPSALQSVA

[11] = biological target: Aurora C (Homo sapiens, UniProt Q9UQB9); settings: cited from earlier work
Chain of Aurora C (Q9UQB9 whole entry): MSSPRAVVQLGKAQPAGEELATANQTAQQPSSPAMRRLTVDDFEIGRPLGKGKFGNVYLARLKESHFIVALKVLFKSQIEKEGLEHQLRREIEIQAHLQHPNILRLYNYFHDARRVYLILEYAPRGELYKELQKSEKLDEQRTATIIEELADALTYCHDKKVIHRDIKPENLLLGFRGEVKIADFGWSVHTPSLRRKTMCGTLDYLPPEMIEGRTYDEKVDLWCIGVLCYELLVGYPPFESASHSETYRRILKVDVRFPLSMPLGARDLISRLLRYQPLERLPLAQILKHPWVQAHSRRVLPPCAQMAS

[12] = biological target: hERG ion-channel (Homo sapiens, UniProt Q12809); settings: cited from earlier work
[13] = tested on: U937 cells expressing an inducible shRNF5 vector; assay: Small molecule epigenetic regulator screen; assay type: cell-based; settings: 0.5 μM or 5 μM, 6 days, +Dox versus −Dox
[14] = tested on: U937 cells; assay: Viability/growth of U937 cells (CellTiter Glo); assay type: cell-based; settings: RNF5-KD U937, 24 h
[15] = tested on: HL-60 cells; assay: Viability of HL-60 cells expressing pLKO or shRNF5; settings: for IC50: Homo sapiens, HL-60, 48 h
[16] = biological target: BRD4 (Homo sapiens, UniProt O60885); settings: cited from earlier work
[17] = tested on: PI3K; settings: cited from earlier work
[18] = tested on: MCF-7 cells; settings: cited from earlier work
[19] = biological target: nuclear receptor coactivator 3 (Homo sapiens, UniProt Q9Y6Q9); settings: cited from earlier work
[20] = biological target: PAD1 (Homo sapiens, UniProt Q9ULC6); settings: cited from earlier work
Chain of PAD1 (Q9ULC6 whole entry, species assumed): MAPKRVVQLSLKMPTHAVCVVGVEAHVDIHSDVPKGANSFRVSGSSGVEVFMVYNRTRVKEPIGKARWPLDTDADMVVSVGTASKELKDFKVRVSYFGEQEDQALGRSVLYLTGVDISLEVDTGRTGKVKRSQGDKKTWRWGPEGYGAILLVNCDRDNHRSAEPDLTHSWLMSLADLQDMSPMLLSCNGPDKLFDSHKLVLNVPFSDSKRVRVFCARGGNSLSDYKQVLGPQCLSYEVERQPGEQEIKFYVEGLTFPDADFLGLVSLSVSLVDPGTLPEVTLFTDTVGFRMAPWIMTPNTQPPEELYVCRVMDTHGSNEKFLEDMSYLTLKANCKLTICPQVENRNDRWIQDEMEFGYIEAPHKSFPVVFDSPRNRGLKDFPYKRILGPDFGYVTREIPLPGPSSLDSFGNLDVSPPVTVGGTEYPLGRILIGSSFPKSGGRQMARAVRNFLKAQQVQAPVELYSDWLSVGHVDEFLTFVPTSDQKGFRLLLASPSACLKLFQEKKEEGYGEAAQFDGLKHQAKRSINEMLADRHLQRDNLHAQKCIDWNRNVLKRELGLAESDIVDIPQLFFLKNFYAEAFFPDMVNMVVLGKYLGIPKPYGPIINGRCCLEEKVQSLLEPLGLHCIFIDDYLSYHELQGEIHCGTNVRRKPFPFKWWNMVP

[21] = biological target: PAD3 (Homo sapiens, UniProt Q9ULW8); settings: cited from earlier work
[22] = tested on: HL-60; settings: cytotoxic; cited from earlier work
[23] = tested on: HDAC1B; settings: cited from earlier work
[24] = tested on: HDAC1A; settings: cited from earlier work
[25] = biological target: HIF-1alpha prolyl hydroxylase-2 (PHD2) (Homo sapiens, UniProt Q9GZT9); settings: cited from earlier work
Chain of HIF-1alpha prolyl hydroxylase-2 (PHD2) (Q9GZT9 whole entry, species assumed): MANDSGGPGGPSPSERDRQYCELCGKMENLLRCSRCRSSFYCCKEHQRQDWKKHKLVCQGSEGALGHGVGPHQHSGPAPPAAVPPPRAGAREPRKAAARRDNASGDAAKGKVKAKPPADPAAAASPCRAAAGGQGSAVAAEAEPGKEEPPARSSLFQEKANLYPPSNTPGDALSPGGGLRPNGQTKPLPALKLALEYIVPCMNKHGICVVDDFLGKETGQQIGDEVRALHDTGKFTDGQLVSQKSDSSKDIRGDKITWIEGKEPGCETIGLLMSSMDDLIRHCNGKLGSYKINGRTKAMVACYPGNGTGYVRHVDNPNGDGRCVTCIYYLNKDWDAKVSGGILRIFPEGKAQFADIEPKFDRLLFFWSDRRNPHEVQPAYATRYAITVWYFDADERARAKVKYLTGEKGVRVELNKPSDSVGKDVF

[26] = tested on: quinone reductase-1; settings: in mouse hepatoma cells; cited from earlier work
[27] = biological target: T1, SIRT1 (Homo sapiens, UniProt Q96EB6); settings: cited from earlier work
T1 sequence (Q96EB6 1-747): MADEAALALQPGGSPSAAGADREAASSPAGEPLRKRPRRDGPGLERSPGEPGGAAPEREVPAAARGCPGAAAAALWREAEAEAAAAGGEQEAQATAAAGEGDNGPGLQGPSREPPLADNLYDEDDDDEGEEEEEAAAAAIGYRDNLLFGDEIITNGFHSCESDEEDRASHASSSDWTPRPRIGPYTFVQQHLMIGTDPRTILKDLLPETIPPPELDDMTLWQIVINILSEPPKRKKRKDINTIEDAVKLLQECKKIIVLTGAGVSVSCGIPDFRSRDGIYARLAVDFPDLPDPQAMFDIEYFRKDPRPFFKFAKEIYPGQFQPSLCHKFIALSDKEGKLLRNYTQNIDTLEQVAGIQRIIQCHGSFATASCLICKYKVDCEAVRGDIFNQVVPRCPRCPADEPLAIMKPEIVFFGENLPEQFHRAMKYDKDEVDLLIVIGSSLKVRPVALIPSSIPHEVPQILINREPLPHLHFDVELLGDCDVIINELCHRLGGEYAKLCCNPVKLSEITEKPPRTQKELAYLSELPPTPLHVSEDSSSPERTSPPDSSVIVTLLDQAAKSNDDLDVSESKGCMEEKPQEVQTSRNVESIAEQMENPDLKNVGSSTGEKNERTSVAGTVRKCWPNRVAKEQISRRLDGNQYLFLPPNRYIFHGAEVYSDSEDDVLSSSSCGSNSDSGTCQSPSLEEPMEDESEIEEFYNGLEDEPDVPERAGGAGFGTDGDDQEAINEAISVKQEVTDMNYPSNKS

[28] = tested on: metastatic breast cancer MDA-MB 231 cell; settings: cited from earlier work
[29] = biological target: O6-alkylguanine-DNA-alkyltransferase (Homo sapiens, UniProt P16455); settings: cited from earlier work
[30] = tested on: maize HD1-A; settings: cited from earlier work
[31] = biological target: menin-MLL fusion protein interaction (Homo sapiens, UniProt O00255); settings: cited from earlier work
Chain of menin-MLL fusion protein interaction (O00255 whole entry, the tested form may be a part): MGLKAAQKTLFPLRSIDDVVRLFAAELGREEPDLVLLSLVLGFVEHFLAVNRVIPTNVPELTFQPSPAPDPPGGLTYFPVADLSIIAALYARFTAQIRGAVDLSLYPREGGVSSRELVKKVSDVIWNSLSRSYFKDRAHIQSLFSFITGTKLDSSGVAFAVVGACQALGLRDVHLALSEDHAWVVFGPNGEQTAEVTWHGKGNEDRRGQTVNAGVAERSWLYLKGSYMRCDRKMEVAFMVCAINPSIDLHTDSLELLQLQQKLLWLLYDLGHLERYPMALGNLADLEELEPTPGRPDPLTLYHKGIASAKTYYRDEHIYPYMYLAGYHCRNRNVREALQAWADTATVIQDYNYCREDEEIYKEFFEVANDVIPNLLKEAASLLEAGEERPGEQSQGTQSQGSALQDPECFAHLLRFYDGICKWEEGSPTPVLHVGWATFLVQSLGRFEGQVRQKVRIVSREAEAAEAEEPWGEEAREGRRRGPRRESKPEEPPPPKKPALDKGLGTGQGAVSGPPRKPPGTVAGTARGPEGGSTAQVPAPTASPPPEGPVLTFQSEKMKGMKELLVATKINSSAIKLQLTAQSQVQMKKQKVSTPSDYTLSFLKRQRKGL

[32] = biological target: MLL1 (Homo sapiens, UniProt Q03164); settings: cited from earlier work
[33] = tested on: BRD2, BRD3, and BRD4; settings: cited from earlier work
[34] = tested on: HCT116; settings: proliferation; cited from earlier work
[35] = tested on: Colo205; settings: proliferation; cited from earlier work
[36] = biological target: DNMT3B (Homo sapiens, UniProt Q9UBC3); settings: cited from earlier work
[37] = biological target: Flt3 (Homo sapiens, UniProt P36888); settings: cited from earlier work
[38] = biological target: RET (Homo sapiens, UniProt P07949); settings: cited from earlier work
[39] = tested on: MOLM-13 cells; assay: Viability/growth of MOLM-13 cells (CellTiter Glo); assay type: cell-based; settings: RNF5-KD versus control
[40] = tested on: MOLM-13 cells; assay: Western blot of apoptotic markers; assay type: cell-based; settings: RNF5-KD versus control

Q: Which EC50 [1] does the source give for `O=C(CCCCCCC(=O)Nc1ccc(I)cc1)NO` [4-iodo-SAHA] here?
A: 1100 nM

Q: And the EC50 ([2]; proliferation)?
A: 950 nM

Q: What about the EC50 [3] of the same compound?
A: 120 nM

Q: For `Cl.O=C([C@@H](Cc1cccc(C(F)(F)F)c1)NS(=O)(=O)c1cc(F)c2c(c1)CCNC2)N1CCCC1` [(R)-PFI-2 (hydrochloride)], which IC50 [4] is on record?
A: 2 nM

Q: And the “fold selectivity over a panel of 18 other methyltransferases” value [4]?
A: nM) that demonstrates greater than 1,000-fold selectivity

Q: With `CN(C)Cc1ccc(-c2nc3cccc4c3n2CCNC4=O)cc1` [AG-14361] as the compound, how does the Ki [5] read?
A: < 5 nM

Q: What about the “fold more potent than the benzamides” value [5] of the same compound?
A: is at least 1000-fold more potent than the benzamides.

Q: With `CCN1CCN(C(=O)Cc2ccc(Nc3ncc(F)c(Nc4ccc(C(=O)Nc5ccccc5Cl)cc4)n3)cc2)CC1` [Aurora A Inhibitor I] as the compound, how does the IC50 [6] read?
A: 3.4 nM

Q: What about the “fold selectivity for Aurora A than Aurora B” value [6] of the same compound?
A: 1000 fold

Q: With `COCCCn1c(N)c(C(=O)NC2CCCC2)c2nc3ccccc3nc21` [CAY10591] as the compound, how does the TNF-a levels ([7]; at 20 μM) read?
A: 104 pg/mL

Q: And the TNF-a levels ([7]; at 60 μM)?
A: 53 pg/mL

Q: For `CCCCCOc1ccc(/C=C\c2cccc(O)c2C(=O)O)cc1` [CAY10669], which IC50 [8] is on record?
A: 662000 nM

Q: What about the “fold improvement in inhibitory potency over anacardic acid” value [8] of the same compound?
A: 2 fold

Q: Which IC50 [9] does the source give for `O=C(Nc1ccc(Cl)cc1)C1CCCN(C(=O)c2cc(C(F)(F)F)cc(C(F)(F)F)c2)C1` (stereo not shown) [CCG-100602] here?
A: 9800 nM

Q: For `Cc1cc(CN2CCN(c3c(Br)cnc4nc(-c5ccc(N6CCN(C)CC6)cc5)[nH]c34)CC2)no1` [CCT137690], which IC50 [10] is on record?
A: 25 nM

Q: And the IC50 [11]?
A: 19 nM

Q: And the “effect on hERG ion-channel” value [12]?
A: nM. It has little effect on hERG ion-channel.

Q: For `CC(=O)Nc1ccc(C(=O)Nc2ccccc2N)cc1` [CI-994, N-acetyldinaline], which “viability of shRNF5-expressing cells relative to control WT RNF5 cells” value [13] is on record?
A: decreased viability of shRNF5-expressing cells

Q: And the “IC50 for CI-994 in terms of cell viability relative to control cells” value [14]?
A: lower IC50

Q: What about the “IC50 for CI-994 in terms of cell viability relative to control cells” value ([15]; RNF5-KD HL-60, 24 h) of the same compound?
A: lower IC50

Q: Which IC50 [16] does the source give for `Cc1sc2c(c1C)C(c1ccc(Cl)cc1)=N[C@@H](CC(N)=O)c1nnc(C)n1-2` [CPI-203] here?
A: 37 nM

Q: Which IC50 [17] does the source give for `COc1ccc(-c2nc(N3CCOCC3)c3sc(CN(C)c4ncc(C(=O)NO)cn4)cc3n2)cn1` [CUDC-907] here?
A: 19 nM

Q: Which IC50 ([18]; cell-based cytotoxicity assay) does the source give for `COc1cc([C@@H]2c3cc4c(cc3[C@@H](O[C@@H]3O[C@@H]5CO[C@@H](C)O[C@H]5[C@H](O)[C@H]3O)[C@H]3COC(=O)[C@H]23)OCO4)cc(OC)c1O` [Etoposide] here?
A: 5.14 nM

Q: What about the IC50 [19] of the same compound?
A: 2480 nM

Q: With `NC(=O)[C@H](CCCN=C(N)CF)NC(=O)c1ccccc1` [F-Amidine (trifluoroacetate salt), F-Amidine] as the compound, how does the IC50 [18] read?
A: 500 nM

Q: And the IC50 ([2]; cytotoxic)?
A: 1000 nM

Q: And the IC50 [20]?
A: 29500 nM

Q: And the IC50 [21]?
A: 350000 nM

Q: What about the IC50 [22] of the same compound?
A: 500 nM

Q: Which IC50 [23] does the source give for `CCN(CC)Cc1ccc2cc(COC(=O)Nc3ccc(C(=O)NO)cc3)ccc2c1` [Givinostat (ITF2357), Givinostat] here?
A: 7.5 nM

Q: What about the IC50 [24] of the same compound?
A: 16 nM

Q: For `O=C(O)CNC(=O)c1c(O)c2ccccc2n(Cc2ccccc2)c1=O` [IOX2], which IC50 [25] is on record?
A: 21 nM

Q: And the “fold selectivity over JMJD2A, JMJD2C, JMJD2E, JMJD3, or FIH” value [25]?
A: > 100 fold

Q: For `O=C(/C=C/c1ccc(O)cc1)c1ccc(O)cc1O` [Isoliquiritigenin], which “concentration required to double activity” value [26] is on record?
A: 1.8 μM in mouse hepatoma cells.

Q: For `O=C(NCc1ccccc1)c1c(/N=C/c2c(O)ccc3ccccc23)sc2c1CCCC2` [JGB1741], which IC50 [27] is on record?
A: 15000 nM

Q: And the IC50 [28]?
A: 512 nM

Q: With `Nc1nc(OCc2cc(Br)cs2)c2[nH]cnc2n1` [Lomeguatrib] as the compound, how does the IC50 [29] read?
A: 5 nM

Q: Which IC50 [30] does the source give for `Cn1cc(/C=C/C(=O)c2cccc(F)c2)cc1/C=C/C(=O)NO` [MC1568] here?
A: 100 nM

Q: What about the “fold more selective for HD1-A than HD1-B” value [30] of the same compound?
A: 34 fold

Q: Which IC50 [31] does the source give for `CC(C)c1cc2c(N3CCN(C4=NCC(C)(C)S4)CC3)ncnc2s1` [MI-3 (Menin-MLL Inhibitor)] here?
A: 648 nM

Q: For `CCc1cc2c(N3CCN(c4nncs4)CC3)ncnc2s1` [MI-nc (hydrochloride)], which IC50 [31] is on record?
A: 193000 nM

Q: For `CCC(CC)(NC(=O)C(C)C)C(=O)N[C@@H](CCCN=C(N)N)C(=O)NC1(C(=O)NC(c2ccc(F)cc2)c2ccc(F)cc2)CCCC1` [MM-102], which IC50 [32] is on record?
A: 400 nM

Q: For `Cc1sc2c(c1C)C(c1ccc(Cl)cc1)=N[C@@H](CC(=O)Nc1ccc(O)cc1)c1nnc(C)n1-2` [OTX015], which EC50 [33] is on record?
A: 10 to 19 nM

Q: With `Cc1cc(Nc2nn(-c3ccccc3)c(=O)c3ccccc23)n[nH]1` [Phthalazinone pyrazole] as the compound, how does the IC50 [18] read?
A: 1600 nM

Q: What about the IC50 [34] of the same compound?
A: 7800 nM

Q: And the IC50 [35]?
A: 2900 nM

Q: Which IC50 [17] does the source give for `O=c1c(O)c(-c2ccc(O)c(O)c2)oc2cc(O)cc(O)c12` [Quercetin] here?
A: 2400 to 5400 nM

Q: For `Cc1cc(Nc2ccc(NC(=O)c3ccc(Nc4ccnc5ccccc45)cc3)cc2)nc(N)n1` [SGI-1027], which IC50 [36] is on record?
A: 7500 nM

Q: For `CCS(=O)(=O)c1cccc(-c2cc(C(=O)NC3CCN(C)CC3)c(C)c3[nH]c4ncc(C)cc4c23)c1` [TAK-901], which IC50 [10] is on record?
A: 15 nM

Q: Which results are given for `Cc1cnc(Nc2ccc(N3CCN(C)CC3)cc2)nc1Nc1cccc(S(=O)(=O)NC(C)(C)C)c1` [TG101209]?
A: IC50 [37]: 25 nM; IC50 [38]: 17 nM

Q: Which viability ([39]; thapsigargin 100 nM) does the source give for `C/C=C(/C)C(=O)O[C@H]1C(C)=C2[C@H]([C@@H]1OC(=O)CCCCCCC)[C@@](C)(OC(C)=O)C[C@H](OC(=O)CCC)[C@@]1(O)[C@H]2OC(=O)[C@@]1(C)O` [Thapsigargin] here?
A: decreased viability of MOLM-13 RNF5-KD cells to a greater extent

Q: And the apoptotic markers ([40]; thapsigargin 1 μM)?
A: increased apoptotic markers to levels higher than those seen in control cells

Q: Which results are given for `CC(C)C[C@H](NC(=O)[C@H](Cc1ccccc1)NC(=O)c1cnccn1)B(O)O` [bortezomib]?
A: viability ([39]; BTZ 5 nM): decreased viability; apoptotic markers (cleaved caspase-3, PARP) ([40]; BTZ 5 nM): increased levels of apoptotic markers; IC50 ([15]; read-out: BTZ IC50, RNF5-KD cells (shRNF5), 48 h): 5.4 nM; IC50 ([15]; read-out: BTZ IC50, controls (pLKO), 48 h): 9.6 nM

Q: Which IC50 [11] does the source give for SNS-314 Mesylate here?
A: 3 nM
